Laboratory results from patent US20250312356A1, “TREATMENT OF DYSMENORRHEA” (priority 2024, published 2025).
Where two headings read alike, the source gives them in different places.

Key:
pregnant rabbits = assay: reproductive toxicity studies; type: in vivo; settings: intravenous doses up to 2.5 mg/kg/day during organogenesis
[1] = tested on: nasal chemosensory mucosa; assay: electrogram recorded from the surface of the nasal chemosensory mucosa; type: in vivo, human; settings: intranasal
Description: (§1) The half effective dose of this effect was 0.087 μg.

[2] = tested on: females with DSM-IV-defined PMDD; assay: Phase 2a study, daily symptom report pain cluster, cramps; type: in vivo, human
Source text: During a 3- to 5-week screening period, patients who presented to the clinic for bothersome PMDD symptoms (defined as “affected functioning”) were recruited. The Premenstrual Tension Syndrome scale was used for screening. After study eligibility criteria and PMDD symptom presence were confirmed at Visit 1, patients received single-blind placebo; those with no acute improvement were eligible for randomization study. Randomized patients presented for Visit 2 when PMDD symptoms were bothersome during the second cycle after entry. PH80 (0.9 μg) or placebo was administered intranasally; PMDD symptoms were evaluated 30 and 60 minutes later. Patients were then supplied with their assigned double-blind treatment for intranasal self-administration up to 4 times a day (PH80 0.9 μg/dose or matching placebo) for up to 6 consecutive days before the estimated menses onset in that cycle. On the first day of menses in the second cycle, a follow-up visit (Visit 3) occurred. 82 females were screened; 61 met eligibility criteria and were randomized to receive PH80 (n=33) or placebo (n=28). […] A total of 49 patients provided at least 1 post-treatment assessment and were included in the pain efficacy analysis.
Pain efficacy analysis for cramping was rated daily by the patient on a 5-point scale ranging from 0 (no symptoms at all) up to 4 (very severe). The overall pain cluster score and individual symptom ratings were compared post-hoc using two-sided T-tests, without adjustments for multiplicity or within-patient variance; means for each group were plotted for each reported day, and no imputation was made for missing data. Results are summarized in Table 2 and depicted in FIG. 3.

[3] = tested on: women of reproductive age; assay: clinical study of changes in physiological parameters; type: in vivo, human; settings: 0.5 μg nasal spray vs vehicle, 14 women
[4] = tested on: estrogen, androgen, progestin and glucocorticoid receptors; assay: in vitro agonist or antagonist activity on steroid hormone receptors; type: biochemical
[5] = tested on: women diagnosed with PMDD
[6] = tested on: GABAA receptors, opioid receptors, or dopamine receptors; assay: in vitro receptor binding study
estrogen receptors = assay: in vitro receptor binding study
[7] = tested on: isolated human nasal chemosensory neurons; assay: electrophysiological studies in isolated nasal chemosensory neurons; type: cell-based
[8] = Ames reverse mutation assay
[9] = tested on: rats, mice, rabbits and dogs; assay: acute and multidose (28 day) toxicity studies; type: in vivo
[10] = tested on: women of reproductive age; assay: clinical study of core body temperature and tone of the sympathoadrenergic system; type: in vivo, human; settings: 1.6 μg nasal spray
Description: It also changed the tone of the sympathoadrenergic system (as assessed by measuring physiologic sinus arrhythmia) within 5 minutes of administration, and the effect persisted for 15 to 20 minutes.

bone marrow = assay: in vivo bone marrow micronucleus test
[11] = in vivo
menopausal women = assay: hot flashes after intranasal administration; type: in vivo, human
Source text: (§2) 16α,17α-Epoxyestr-4-en-10β-ol-3-one decreased parasympathetic system tone resulting in increased sympathetic activity and stimulation of β2 adrenergic receptors in the bronchiole smooth muscle that induced bronchodilation; • (b) increased skin conductance amplitude is the result of increased skin secretions, which are produced by preponderance of the sympathetic nervous system tone (or decreased parasympathetic tone); • (c) decreased body temperature is explained by increased activity of the posterior (adrenergic) hypothalamus and decreased parasympathetic tone (anterior hypothalamus).

[12] = tested on: neurotransmitter receptors, re-uptake sites, or steroid receptors; assay: in vitro receptor binding study
[13] = tested on: human volunteers of both sexes; assay: reflex activity and physiologic parameters after intranasal administration in volunteers; type: in vivo; settings: 1.6 μg intranasal
Description: as §1, §2

For `C[C@]12CCC3C(CCC4=CC(=O)CC[C@]43O)C1C[C@H]1O[C@H]12` (stereo partly drawn) [16α,17α-epoxyestr-4-en-10β-ol-3-one], the “effects on maternal or litter parameters” value (pregnant rabbits) was “no adverse effects on maternal or litter parameters”, the “half effective dose of electrogram activation” value [1] was 0.087 µg and the “activation of the electrogram” value ([1]; microgram quantities) was “concentration dependent activation”. The “cramps score, mean” value ([2]; Day 1, 0.9 μg/dose up to 4 times a day, 5-point scale 0 to 4) was 1.26, the “cramps score, mean” value ([2]; Day 2) was 1.00 and the “cramps score, mean” value ([2]; Day 3) was 0.59. For the same compound, the “cramps score, mean” value ([2]; Day 4) was 0.52, the “cramps score, mean” value ([2]; Day 5) was 0.42 and the “cramps score, mean” value ([2]; Day 6, n=19, P=0.01 vs placebo) was 0.21. For the same compound, the cardiac frequency [3] was “not statistically significant increase”, the core body temperature [3] was “statistically significant decreases” and the galvanic skin reflex [3] was “statistically significant decreases”. The respiratory frequency [3] was “statistically significant decreases”, the skeletal muscle tone [3] was “statistically significant decreases” and the “agonist or antagonist activity on estrogen, androgen, progestin and glucocorticoid receptors” value [4] was “no agonist or antagonist activity”. For the same compound, the “cortical behavioral symptoms (headache, tension)” value ([5]; 0.9 μg intranasal aerosol) was “significant improvements”, the “hypothalamic behavioral symptoms (fatigue, anger, craving for foods)” value ([5]; 0.9 μg intranasal aerosol) was “significant improvements” and the “limbic system behavioral symptoms (mood swings, depression, lack of interest)” value ([5]; 0.9 μg intranasal aerosol) was “significant improvements”. For the same compound, the mean cramping score ([5]; Day 1, 29 women, scale 0 to 4) was 1.19, the mean headache score ([5]; Day 1, scale 0 to 4) was 1.14 and the “difference in mean cramping scores vs placebo” value ([5]; Day 4, p<0.05, one-tail test) was “significant”. For the same compound, the “difference in mean headache scores vs placebo” value ([5]; Day 5, p<0.05, one-tail test) was “significant”, the “share of group reporting cramping symptoms” value ([5]; Day 6) was 17% and the mean cramping score ([5]; Day 6, scale 0 to 4) was 0.24. For the same compound, the mean headache score ([5]; Day 6, scale 0 to 4) was 0.28, the persistence of improvements ([5]; single dose intranasal) was “approximately 5 hours” and the “time to appearance of improvements” value ([5]; single dose intranasal) was no more than 30 min. The serious adverse events ([5]; up to 4 times daily) was “No serious adverse events were reported”, the side effects ([5]; up to 4 times daily) was “minimal and similar to administration of placebo” and the “binding to GABAA receptors, opioid receptors, or dopamine receptors” value [6] was “does not bind”. For the same compound, the “binding to estrogen receptors” value (estrogen receptors) was “does not bind”, the “concentration giving maximal response (amplitude)” value ([7]; concentration-dependent amplitude) was 10^−7 to 10^−6 M and the inward currents ([7]; isolated human nasal chemosensory neurons) was “induced inward currents”. The “electrotonic depolarization of the nasal septal chemosensory mucosa” value ([7]; nasal septal chemosensory mucosa) was “electrotonic depolarization of the nasal septal chemosensory mucosa”, the “mutagenic or clastogenic potential” value [8] was “no evidence of mutagenic or clastogenic potential” and the “deaths, adverse clinical signs, effects on laboratory or pathology parameters” value ([9]; single and repeated intranasal and intravenous doses) was “no deaths or adverse clinical signs or effects on laboratory or pathology parameters observed”. The tolerability ([9]; single and repeated intranasal doses (up to 100 μg/rat, 400 μg/rabbit, 600 μg/dog) and intravenous doses up to 2.5 mg/kg) was “well tolerated in all species tested”, the “decrease in core body temperature” value [10] was 1±0.23 °C and the “latency of decrease in core body temperature” value [10] was 0.5 to 4 min. The “persistence of decrease in core body temperature” value [10] was 9 ± 2.5 min, the “persistence of effect on tone of the sympathoadrenergic system” value [10] was 15 to 20 min and the “time to change of tone of the sympathoadrenergic system (physiologic sinus arrhythmia)” value [10] was no more than 5 minutes. For the same compound, the “mutagenic or clastogenic potential” value (bone marrow) was “no evidence of mutagenic or clastogenic potential”, the systemic exposure [11] was “lack of systemic exposure” and the hot flashes (menopausal women) was “decreased number, severity and bother of hot flashes”. The “binding to neurotransmitter receptors, re-uptake sites, or steroid receptors” value [12] was “no binding”, the “body core temperature (external ear canal)” value [13] was “decreased body core temperature” and the cardiac rate [13] was “no significant change”. The “depth of the inspiratory cycle of respiration” value [13] was “significantly increased amplitude”, the “latency of modulation of reflex activity after electrogram” value [13] was 5 to 10 s and the respiration rate [13] was “decreased respiration rate within physiologic range”. The “skeletal muscle tone (electromyogram, chin muscles)” value [13] was “decreased skeletal muscle tone (relaxation)” and the “skin conductance (electrodermal activity)” value [13] was “increased amplitude”.
